Test results taken from patent US20250041382A1, “ANTIVIRAL COMPOSITION COMPRISING OCTOMININ” (priority 2023, published 2025).
Where “and” joins values, the source holds several entries; their conditions need not be identical. Equal values may be shown once. Peptide text beside a SMILES is read from it.

What was measured:
[1] = system: IPNV (VR299 strain); assay: microbe, parasite or virus in culture
Description: (§1) Specifically, three major fish pathogenic viruses VHSV (F1Wa05 strain), IHNV (RtPy91 strain), and IPNV (VR299 strain) were used to study the antiviral activity of Octominin. Octominin at various concentrations reacted with an equal amount of virus (infectious titer: 200 TCID50/mL) at 15° C. for 1 hour. Thereafter, the reactant was overlaid onto quadruplicate FHM cells in a 96-well plate (1×10^5 cells/mL) and incubated for 96 hours.
(§2) CPE was scored by optical microscopy using a DIAPHOT 300 inverted microscope (Nikon Cooperation, Tokyo, Japan) (score 0, 0% CPE; score 1, 10 to 20% CPE; score 2, 30 to 40% CPE; score 3, 50 to 60% CPE; score 4, 70 to 80% CPE; and score 5, 90 to 100%). The results were expressed as a 50% effective concentration (EC50) and calculated using Microsoft Excel software. Ribavirin, a known broad-spectrum antiviral agent, was used as a positive control group. The antiviral activity of Octominin was evaluated by calculation using Equation SI (selective index)=CC50/EC50.

[2] = system: IHNV (RtPy91 strain); assay: microbe, parasite or virus in culture
Description: as §1, §2

[3] = system: VHSV (F1Wa05 strain); assay: Cytopathic effect (CPE) reduction assay, VHSV in FHM cells
Description: as §1, §2

[4] = in vitro; type: cell-based
[5] = in vitro; type: cell-based; conditions: fathead minnow
[6] = fathead minnow (Pimephales promelas), 96 h

| Compound | SI (selective index)=CC50/EC50 ([1]; Chinook salmon (Oncorhynchus tshawytscha), 96 h) | SI (selective index)=CC50/EC50 [2, 6] | SI (selective index)=CC50/EC50 [3, 6] | CC50 ([4]; Chinook salmon (Oncorhynchus tshawytscha)) | selectivity ratio at 96 h ([1]; Chinook salmon) | EC50 ([1]; Infectious pancreatic necrosis virus, CHSE-214) [nM] | EC50 ([2]; Infectious hematopoietic necrosis virus, 96 h) [nM] | selectivity ratio at 96 h ([2]; fathead minnow) | EC50 ([3]; Viral hemorrhagic septicemia virus, 96 h) [nM] | selectivity ratio at 96 h ([3]; fathead minnow, FHM cells infected with VHSV (F1Wa05 strain)) | CC50 ([4]; Chinook salmon) [µM] | CC50 [5] [µM] |
| --- | --- | --- | --- | --- | --- | --- | --- | --- | --- | --- | --- | --- |
| CC[C@H](C)[C@H](NC(=O)[C@H](C)NC(=O)[C@H](CCCCN)NC(=O)CNC(=O)[C@H](C)NC(=O)[C@H](Cc1c[nH]cn1)NC(=O)[C@@H](NC(=O)[C@H](C)NC(=O)CNC(=O)[C@H](CCCNC(=N)N)NC(=O)[C@@H](NC(=O)[C@H](CC(C)C)NC(=O)[C@H](Cc1c[nH]c2ccccc12)NC(=O)CN)[C@@H](C)CC)[C@@H](C)CC)C(=O)N[C@@H](Cc1c[nH]cn1)C(=O)NCC(=O)N[C@@H](CC(C)C)C(=O)N[C@H](C(=O)N[C@@H](Cc1c[nH]cn1)C(=O)N[C@@H](CCCNC(=N)N)C(=O)N[C@@H](CCCNC(=N)N)C(=O)N[C@@H](CCCNC(=N)N)C(=O)N[C@@H](Cc1c[nH]cn1)C(=O)O)[C@@H](C)CC [Octominin] (H-GWLIRGAIHAGKAIHGLIHRRRH-OH) | 2.0 | 4.9 | 2.9 | 1870 µg/mL and 990 µM |  |  |  |  |  |  |  |  |
| NC(=O)c1ncn([C@@H]2O[C@H](CO)[C@@H](O)[C@H]2O)n1 [Ribavirin] |  |  |  |  | 162 | 750 | 550 | 1750 | 270 | 3560 | 121 | 962 |
